The text below walks through data of patent US20220079912A1, “ANTICANCER FORMULATION” (University of Mississippi, priority 2018, published 2022).

The subject of series [1] is BNC41 patient derived Glioblastoma cells. In words: Colony formation assay, combination with DHEA. The format is cell-based, human. As to conditions: BNC41, 24 h, FIG. 20.
A further series relates to SK-OV3. The series can be described thus: Combination cytotoxicity with phenformin. The format is cell-based. As to conditions: SK-OV3, data not shown.
For the next series, the system named is Colo320DM colon cancer. In words: Colony formation assay, combination with DHEA. The format is cell-based, human. The note with it: 24 h, FIG. 20.
For a further series, the system named is PA-1 Ovarian cancer. The series can be described thus: Colony formation assay, combination with DHEA. The series is classed as cell-based, human. The note with it: PA-1, 24 h, FIG. 20.
In series [2] the test system is BNC6 patient derived Glioblastoma cells. In words: Colony formation assay, combination with DHEA. The format is cell-based, human. The note with it: BNC6, 24 h, FIG. 20.
Another series has as its system T98G glioblastoma cells. The series can be described thus: Cell proliferation / cell survival. The series is classed as cell-based, human. As to conditions: varying concentrations, 48 hours, dose dependent, FIG. 1. How it is done:
B16 mouse melanoma cells, T98G glioblastoma cells, and MDA-MB-231 human breast cancer cells were treated with varying concentrations of GH for 48 hours with cell survival measured.

For a further series, the system named is U87MG Glioma cells. The series can be described thus: Colony formation assay, combination with DHEA. The note with it: 24 h, FIG. 20. The format is cell-based, human.
Series [3] relates to cancer stem cells (CSCs) grown from BNC6 patient derived Glioblastoma cells. In words: Cell viability by Trypan Blue exclusion cell count, combination with DHEA. The series is classed as cell-based, human. As to conditions: 24 h, FIGS. 22A-B.
For series [4], the system named is bulk tumor cells from two patients with Temodar (TMZ)-resistant glioblastoma. In words: Combination cytotoxicity with Paw Paw acetogenin extract. The format is cell-based, human. The note with it: GH 4 μM, FIG. 11. The text has this: (§1) Example 3: Paw Paw Extract.
Series [5] concerns cancer stem cell (CSC) populations from two patients with Temodar (TMZ)-resistant glioblastoma. The description is as above. As to conditions: GH 4 μM, FIG. 11. The format is cell-based, human.
Description: as §1

In series [6] the test system is T98G human glioblastoma cells. The series can be described thus: Lactic acid accumulation in cell culture medium. The format is cell-based. As to conditions: FIG. 2B.
Description: Acidification of the cell culture medium occurs because of the enhanced use of glycolysis by transformed cells (and resulting increase in lactic acid production). This led us to investigate whether GH reduced lactic acid levels in the cell culture medium.
The test system of the next series is SK-MEL. The series can be described thus: Combination cytotoxicity with phenformin. The format is cell-based. The note with it: data not shown.
The test system of series [7] is MDA-MB-231 human breast cancer cells. The series can be described thus: Cell proliferation / cell survival. The series is classed as cell-based. The note with it: MDA-MB-231, varying concentrations, 48 hours, dose dependent, FIG. 1. Here is the method:
(§2) Example 1: trans-Gnetin H (GH)—Trans-Gnetin H inhibits cell proliferation. […] B16 mouse melanoma cells, T98G glioblastoma cells, and MDA-MB-231 human breast cancer cells were treated with varying concentrations of GH for 48 hours with cell survival measured. The B16 mouse melanoma cell line was the most sensitive to the anti-proliferative action of GH, perhaps due to the highly glycolytic nature of these cells and/or that they contain wild type p53.

The next series has as its system B16 mouse melanoma cells. The series can be described thus: Cell proliferation / cell survival. The note with it: B16, varying concentrations, 48 hours, dose dependent, FIG. 1. The series is classed as cell-based. How it is done:
as §2

Series [8] deals with Mia-PACA pancreatic cancer. In words: Colony formation assay, combination with DHEA. The series is classed as cell-based, human. The note with it: 24 h, FIG. 20.

SMILES strings stand for the structures.

Description for SK-MEL: (§3) The plus signs above the combination treatment bars indicates the value of % cell survival if the anti-proliferative effect was additive.
Description for SK-OV3: as §3

In the case of `Oc1ccc(/C=C/c2c3c(cc4c2[C@H](c2cc(O)cc(O)c2)[C@@H](c2ccc(O)cc2)O4)O[C@H](c2ccc(O)cc2)[C@H]3c2cc(O)cc(O)c2)cc1` (relative stereo) [GH, trans-Gnetin H], the “cytotoxicity in combination with DHEA (cell staining)” value (in series [1]; in the series on Colo320DM colon cancer; in the series with PA-1 Ovarian cancer; in [2]; with U87MG Glioma cells; in [8]) was “cytotoxic” each time. The “synergistic cytotoxicity with phenformin” value with SK-OV3 and in the series with SK-MEL was “synergistically cytotoxic” in each case. Besides, the “inhibition of cell proliferation (cell survival)” value (with T98G glioblastoma cells; in series [7]; in the series with B16 mouse melanoma cells) was “inhibits the proliferation” in each case. Also, the “cytotoxicity in combination with DHEA (percentage of cell viability)” value in series [3] is listed as “cytotoxic”. The “synergistic cytotoxicity in combination with acetogenin extract from Paw Paw (PP-2 μg/ml)” value in [4] and in series [5] was “synergistically cytotoxic” throughout. Further, the lactic acid production entry in series [6] was “inhibits lactic acid production”.
